From US12403132B2, “Methods of treating bone marrow failure syndromes and compositions for use in the same” (The Board of Trustees of the Leland Stanford Junior …, priority 2020, dated 2025)

Experiments:
miR-208 = experiment: miRNA expression in vehicle-, metformin- and ginsenoside Rb1-treated HSPCs; type: cell-based, human
Text: The abundance of let-7, miR-30 miR-144 and miR-132 were expressed 40.1-, 2.2-, 5.0- and 18.3-fold higher than miR-208, whereas miR-208 was expressed 1.6- and 2.1-fold higher than miR-199 and miR-499. MiR-26a (induced by metformin) expression was 1.4-fold higher than miR-208.

CD11b+ myeloid cells = experiment: CD11b+ myeloid expansion of differentiating human cord blood CD34+ progenitors; type: cell-based
Experimental: FIG. 7. SD208 increases erythroid expansion in human model of DBA through inhibition of NLK and not TGFβ. (a) Differentiating cord blood CD34+ progenitors were transduced with shRNA against luciferase or RPS19 and treated with inhibitors at working concentrations for TGFβ inhibition every three days. Cells were counted and CD235+ erythroid cells were assessed by flow cytometry after 15 days. (b) Prior to flow cytometry, 5000 cells per group were taken from differentiating cultures for NLK kinase assay. (c) CD34+ progenitors were transduced with shRNA against luciferase or RPS19 and non-targeting or siRNA against NLK. After sorting, samples were split into two groups and either treated with vehicle or SD208 every three days. After 15 days cells were counted and subject to flow cytometry to compare the expansion of maturing CD235+ erythroid (left panel) and CD11b+ myeloid cells (right panel). […] Cells were counted and CD235+ erythroid (D—upper) and CD11b+ myeloid cell (D—lower) percentages were determined by flow cytometry. The number of erythroid or myeloid cells is expressed as a percentage of the number of that lineage with no cytokine or drug treatment.
FIG. 9. […] Cells were counted and the percentage expressing CD235+ erythroid (left) and CD11b+ myeloid (right) was determined by flow cytometry. […] Values are expressed as a fold induction relative to untreated. (Panel C) Transduced and sorted CD34+ progenitors were cultured in methylcellulose in the presence or absence of metformin for 16 days and BFU-E erythroid (left) and CFU-GM myeloid (right) colonies scored. […] To directly compare the effect of metformin in each group, metformin-treated cultures were normalized to untreated cultures and are expressed as a fold induction of the untreated control. […]
Cells were incubated with human Fc receptor binding inhibitor (#14-9161-73; eBioscience) followed by primary antibodies CD235-APC (#306607; BioLegend) and CD11b-PE/Cy5 (#101209; BioLegend). Data were collected on a DxP10 flow cytometer (Cytek) and analyzed by using FlowJo Software, v.9.7.2.

Q: `CC(C)=CCC[C@](C)(O[C@@H]1O[C@H](CO[C@@H]2O[C@H](CO)[C@@H](O)[C@H](O)[C@H]2O)[C@@H](O)[C@H](O)[C@H]1O)[C@H]1CC[C@]2(C)[C@@H]1[C@H](O)C[C@@H]1[C@@]3(C)CC[C@H](O[C@@H]4O[C@H](CO)[C@@H](O)[C@H](O)[C@H]4O[C@@H]4O[C@H](CO)[C@@H](O)[C@H](O)[C@H]4O)C(C)(C)[C@@H]3CC[C@]12C` [ginsenoside Rb1] was tested. Which “induction of miR-208” value (miR-208; ginsenoside Rb1-treated HSPCs) did it give?
A: Its value is 1.9 fold.

Q: What about the “impact on CD11b+ myeloid expansion” value (CD11b+ myeloid cells; control or RPS19-insufficiency) of the same compound?
A: Its value is “did not impact”.

Q: For `CN(C)C(=N)N=C(N)N` [metformin], which “induction of miR-499, miR-208, miR-132” value (miR-208; metformin-treated HSPCs) is on record?
A: The value was “None of these miRNAs were induced”.

Q: And the “influence on CD11b+ expansion” value (CD11b+ myeloid cells; 50 mM metformin)?
A: The value was “negligible influence”.
